The text below walks through data of patent US8920851B2, “Treatment of neurodegenerative diseases” (Velacor Therapeutics Pty Ltd, priority 2006, dated 2014).

Each structure is given as a SMILES string. “Also recorded” adds a separate entry of the source.

Assay [1] addresses T1, purified human PP2A A-C dimer (Homo sapiens, UniProt P67775).
T1 construct: purified PP2A A-C dimer purified from human red blood cells; purchased Upstate 14-111 (lot #28002); host or cells: human red blood cells (native purification)
In words: Free sulfhydryl groups in purified PP2A (Ellman's assay). The class given is biochemical. The note with it: 15 min at 37° C. From the text:
Inactivating reversible oxidation of protein phosphatases involves the modification of a critical cysteine residue within the catalytic domain, ultimately leading to the formation of either intramolecular disulphide or sulphenyl-amide bonds. […] Ellman's reagent (5,5′-Dithio-bis(2-nitrobenzoic acid), DTNB) rapidly forms a disulphide bond with free sulfhydryl groups with the release of chromogenic thiolate ions. […] The quantity of free sulfhydryl groups present within the phosphatase was then determined by the addition of Ellman's reagent and subsequent measurement of absorbance at 412 nm (FIG. 5C).
The change in free sulfhydryl groups in purified PP2A following various treatments was determined using Ellman's Reagent. To 0.01 U of PP2A was added to 37.5 μl of dilution buffer (30 mM Tris-HCl, 3 mM EDTA, pH 8.2), 12.5 μl DTNB reagent (Ellman's reagent) and 200 μl of methanol. Samples were incubated for 5 min at RT, and then extinction measured in duplicate for each at 412 nm.
A general note: In Ellman's method for cholinesterases, released thiocholine reacts with DTNB.

Assay [2] has as its system GSK-3β. Nature of the assay: GSK-3β Ser9 phosphorylation by immunoblot in PC3 cells. The class given is cell-based, human. The source says:
The metabolic effects of insulin on glycogen synthesis are mediated by glycogen synthase kinase-3 (GSK-3), a direct downstream substrate of Akt. GSK-3 is a ubiquitously expressed serine/threonine kinase that phosphorylates and inactivates glycogen synthase. In response to activation of the insulin receptor, Akt phosphorylates and inactivates the repressor GSK-3, thereby stimulating glycogen synthesis [Cross et al., 1995]. […] Resolved whole cell lysates were subjected to immunoblot analysis with an antibody that specifically recognizes GSK-3β only when phosphorylated at Ser9, a site critical for its kinase activity, and comparison made with the cytoskeletal protein β-tubulin as a loading control.
On the technique in general: Immunoblotting shows a protein as a band on a membrane.

Assay [3] concerns the target T2, PP2A (Homo sapiens, UniProt P67775).
T2 construct: the phosphatase activity of the general pool of intracellular PP2A; endogenous in cells; host or cells: PC3 prostate carcinoma cells
In words: PP2A immunoprecipitation from treated PC3 cells and phosphatase assay. The class given is cell-based. The note with it: PC3 cells treated 1 hour; sodium selenate 500 μM, endothall A 100 μM.
Procedure: Free phosphate was removed by passing cell lysates through desalting columns, and measured phosphatase activity using a phosphor-serine peptide and malachite green.
1×10^6 PC3 cells were plated in 60 mm plates and allowed attach for 8 h, then serum starved over night. Following various treatments as indicated, the media was aspirated and cells washed once with TBS. Cells were lysed in 0.3 ml of lysis buffer (20 mM Tris-HCl, pH 7.0, 1% Igepal-CA, 2 mM EDTA, 2 mM EGTA, 1× Complete Protease Inhibitor Cocktail) and phosphates removed by passing the lysate through a 2 ml Zeba Desalt Spin Column (Pierce #89890). Protein concentration of the desalted lysate was determined by the BCA assay as previously described. 100-150 μg of total protein was immunoprecipitated with 4 μg of anti-PP2A monoclonal antibody and 30 μl of Protein A-sepharose slurry at 4° C. for 2 h. Samples were then pelleted at 14,000 rpm for 1 min, washed three times in excess TBS and once with pNPP assay buffer. After the final spin all of the supernatant was carefully removed and 500 μM of phosphor-threonine peptide in a final volume of 80 μl added to the beads. Samples were incubated at 30° C. for 10 min with agitation, and the reaction terminated by the addition of malachite green solution. Absorbance was read at 590 nm for each sample in duplicate.

The subject of assay [4] is PC3 prostate carcinoma cells. Nature of the assay: Intracellular redox state assay (DCFDA, flow cytometry). The note with it: 1 h, sodium selenate 500 μM, NAC 1 mM. (In flow cytometry, cells or beads pass a laser one at a time.)
Procedure: 1×10^6 PC3 prostate carcinoma cells were plated in 60 mm dishes, allowed to attach for 8 h, and serum starved overnight. Cells were incubated with DCFDA 5 μM for 15 min prior to treatment.
The proportion of fluorescent cells was then determined by flow cytometry.
Intracellular redox state was determined using 2′,7′-dichlorodihydrofluorescein diacetate (DCFDA). […] Cells were equilibrated with 5 μM of DCFDA for 15 min prior to various treatments. Adherent cells were then harvested, washed twice with PBS and the proportion of fluorescent cells determined immediately by flow cytometry.
The test system of assay [5] is Akt. Nature of the assay: Akt phosphorylation by immunoblot in PC3 prostate carcinoma cells. To be noted: for Akt phosphorylation at Ser473: PC3 cells, 500 μM of each compound, various timepoints. The class given is cell-based, human. On the procedure: Such dephosphorylation may be the result of a direct inhibitory effect on the Akt protein itself, or alternatively, can be similarly achieved indirectly by boosting a negative regulator or inhibiting a positive regulator of Akt phosphorylation. […] PC3 prostate carcinoma cells were plated in 100 mm dishes, and when 70-80% confluent serum starved overnight. […] Cells were lysed, and the level of Akt Ser473 phosphorylation determined by immunoblot analysis with an activation specific antibody, and comparison made to levels of Akt protein expressed. To determine the effect on purified Akt, similarly plated but untreated PC3 cells were lysed in RIPA (minus phosphatase inhibitors), a stringent cell lysis buffer that minimizes maintenance of protein-protein complexes. […] The immunoprecipitated protein was then resolved and the level of activated Akt determined by immunoblot analysis as described above.
A reduction in net Akt activity could be achieved indirectly by either preventing the initial Akt phosphorylation, or alternatively, increasing Akt dephosphorylation [Kohn et. al. 1996]. […] Initially okadaic acid, a polyether toxin from red-tide algae (and causative agent of diarrhoetic shellfish poisoning) which inhibits the phospho-protein phosphatases PP1 and PP2A, two phosphatases implicated in the regulation of Akt dephosphorylation was used [Fernandez et al., 2002]. 5×10^5 PC3 prostate carcinoma cells were plated per well of a 6 well plate, allowed attach for 8 h, and then serum starved overnight. […] Lysed cells were resolved by SDS-PAGE, then probed for Akt phosphorylation at the Ser473 residue by immunoblot analysis with an antibody that specifically recognizes Akt when phosphorylated at this site, and comparison made with the total levels of Akt protein expressed (FIG. 2A).
This panel included tautamycin 500 nM (PP1), okadaic acid 500 nM (low dose PP2A>PP1), endothall A (PP2A) 100 μM, calyculin A 2 nM (low dose PP1>PP2A), calyculin A 10 nM (high dose inhibits PP1 and PP2A) and cyclosporine A 400 ng/ml (PP2B). […] Again, lysed cells were resolved by SDS-PAGE, then membranes probed for Akt phosphorylation at the Ser^473 residue by immunoblot analysis with an antibody that specifically recognizes Akt when phosphorylated at this site, and comparison made with the total levels of Akt protein expressed.
5×10^5 PC3 prostate carcinoma cells were plated per well in a 6-well plate, allowed to attach for 8 h, and then serum starved overnight. […] Equal amounts of whole cell lysates were resolved, and then subjected to immunoblot analysis to determine the level of phosphorylated Akt Ser^473. Comparison was then made with the total level of Akt protein expressed.
The phosphorylation status of Akt in whole cell lysates was determined using activation specific antibodies.
Other inorganic (sodium selenite, selenium dioxide, selenium sulphide and selenious acid) and organic (methylselenocysteine, selenocystine) selenium species were tested for their ability to affect Akt activation. All forms were dissolved in water with the exception of selenium sulphide which was solubilised in DMSO, and added to serum starved PC3 cells at a concentration of 500 μM for 1 hour, Whole cell lysates were then resolved, and the activation status of Akt determined by immunoblotting with an antibody that specifically recognizes Akt when phosphorylated at the Ser473 site, as well as the total level of Akt expression (pan Akt). To quantify the degree of Akt activation, immunoblots were digitalised, and the ratio of phosphorylated Akt to total Akt determined by densitometry.

[6] abbreviates: serum free PC3 cells, 500 μM, various times.

T1 sequence (P67775 whole entry): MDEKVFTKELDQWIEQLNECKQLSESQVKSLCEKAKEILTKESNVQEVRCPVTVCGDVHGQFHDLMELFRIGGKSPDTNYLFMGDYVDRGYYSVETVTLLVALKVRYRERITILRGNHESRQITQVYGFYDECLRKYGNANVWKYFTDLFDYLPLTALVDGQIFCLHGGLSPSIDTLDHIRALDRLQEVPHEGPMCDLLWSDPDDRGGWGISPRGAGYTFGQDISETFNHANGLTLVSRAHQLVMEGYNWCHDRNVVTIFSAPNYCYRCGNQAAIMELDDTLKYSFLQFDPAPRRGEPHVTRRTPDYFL
T1 sequence (P30153 2-589 partner limits assumed): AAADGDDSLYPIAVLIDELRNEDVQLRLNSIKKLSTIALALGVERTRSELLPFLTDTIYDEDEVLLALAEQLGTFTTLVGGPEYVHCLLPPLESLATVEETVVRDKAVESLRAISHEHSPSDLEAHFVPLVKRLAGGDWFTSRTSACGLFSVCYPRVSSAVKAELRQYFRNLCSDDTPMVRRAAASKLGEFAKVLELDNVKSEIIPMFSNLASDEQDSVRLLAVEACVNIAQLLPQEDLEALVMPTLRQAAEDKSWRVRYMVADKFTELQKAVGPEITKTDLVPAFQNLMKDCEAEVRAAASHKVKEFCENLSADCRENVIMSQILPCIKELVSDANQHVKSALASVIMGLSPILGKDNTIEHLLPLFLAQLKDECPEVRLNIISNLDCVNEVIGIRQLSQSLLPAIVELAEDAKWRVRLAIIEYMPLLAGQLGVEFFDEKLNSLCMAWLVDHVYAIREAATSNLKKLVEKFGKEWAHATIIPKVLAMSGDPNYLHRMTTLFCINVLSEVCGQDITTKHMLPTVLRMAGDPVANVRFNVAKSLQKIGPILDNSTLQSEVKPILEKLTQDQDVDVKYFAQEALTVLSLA
T2 sequence (P67775 whole entry): as the sequence (P67775 whole entry) above
T2 sequence (P30153 2-589 partner limits assumed): as the sequence (P30153 2-589 partner limits assumed) above

`O=[Se](=O)(O)O` [sodium selenate]: the “number of free sulfhydryl groups in PP2A” value in assay [1] (0.01 U PP2A, 10 mM of each agent) was “has no effect”. For the same compound, the “hydrogen peroxide mediated modification of PP2A sulfhydryl groups in the presence of sodium selenate” value in assay [1] (sodium selenate 10 mM and hydrogen peroxide 10 mM) is on record as “did not protect PP2A from hydrogen peroxide mediated modification of sulfhydryl groups; also recorded: significantly more efficient in the presence of sodium selenate”. In assay [2] (500 μM, 0 to 6 h), the “GSK-3β phosphorylation at Ser9, time course” value is “marked reduction in phosphorylation, which was maximal at 1 h and 3 h, and returned towards basal levels at the 6 h timepoint”. In addition, the “reduction of GSK-3β phosphorylation levels” value in assay [2] (densitometry, sodium selenate 500 μM 3 h, LY294002 50 μM 1 h) is listed as “over 20%”. In addition, the “phosphatase activity of immunoprecipitated PP2A (general intracellular pool)” value in assay [3] is recorded as “had no effect”. For the same compound, the “basal proportion of fluorescent cells (ROS)” value in assay [4] is recorded as “had no effect on the basal proportion of fluorescent cells”. In addition, the “Akt phosphorylation at Ser473” value in assay [5] is given as “profoundly inhibited Akt phosphorylation”. Besides, in assay [5] (listed as selenate), the “Akt phosphorylation at Ser473” value was “inhibited Akt phosphorylation”. Further, the “Akt Ser473 phosphorylation” value in assay [5] (intact serum starved PC3 cells, sodium selenate 500 μM, 1 h) was “profound reduction in Akt phosphorylation; also recorded: markedly reduces the chronically high levels of Akt phosphorylation; also recorded: marked decrease in the phosphorylation of Akt; also recorded: markedly reduced the level of Akt phosphorylation”. Further, in assay [5] (setting [6]), the “phosphorylation of Akt at Ser473 and Thre308, after the initial boost” value was “marked and prolonged deactivation”; the “total cellular Akt levels (pan Akt)” value is “remained essentially unchanged”. In assay [5] (serum free PC3 cells, 500 μM, within 10 minutes of exposure), the “phosphorylation of Akt at Ser473 and Thre308, early” value is recorded as “transient boost in phosphorylation of Akt”. Moreover, the “Akt activation: ratio of phosphorylated Akt to total Akt versus control” value in assay [5] (serum starved PC3 cells, 500 μM, 1 hour, densitometry) was “inhibits activation of Akt”. The “reduction in Akt phosphorylation at Ser473 compared to untreated cells” value in assay [5] (serum starved PC3 cells, 500 μM, 1 hour, densitometry, p<0.05) is given as “greater than 80%”.
